Experimental data taken from patent US6482410B1, “Cytotactin derivatives that stimulate attachment and neurite outgrowth, and methods of making same” (The Scripps Research Institute, priority 1994, dated 2002).

Tests used:
[1] = target: β1 integrin on chicken SL29 fibroblasts and chick dorsal root ganglion neurons (chicken) (UniProt P07228); experiment: cell-based or functional assay
[2] = test system: neurons from chick forebrain; experiment: CNS neurite outgrowth, forebrain neurons, 7 hours; format: cell-based; conditions: 7 hour growth period
Protocol: (§1) Dorsal root ganglia (DRG) cells or forebrain neurons were prepared for the cell attachment assays as follows. DRG from day 6 chicken embryos or forebrains from day 7 chicken embryos were dissected into HBSS. The tissue was pelleted by centrifugation and resuspended in CMF-HBSS and incubated at 37° C. for 10 minutes. The tissue was pelleted again and resuspended in CMF-HBSS containing 0.08% trypsin and allowed to trypsinize for 20 minutes at 37° C. An equal volume of DMEM/F12, 10% FCS, 20 ng/ml nerve growth factor (NGF) (for DRG cells only), 10 μg/ml gentamycin (10% medium) was added, and the tissue was pelleted and resuspended in 2 ml of the 10% medium. The cells were triturated with a fire-polished Pasteur pipette for 15 strokes, and the cells were washed and resuspended in 10 ml of 10% medium. DRG cells were plated in a 10 cm tissue culture dish and incubated for 1 hour at 37° C. in 5% CO2, to allow for attachment of contaminating fibroblasts.
(§2) After replating, the cells were harvested, pelleted and washed three times in DMEM/F12, 1% fetal calf serum (FCS), 20 ng/ml NGF (for DRG cells only), 10 μg/ml gentamycin (1% medium), and the number of cells determined using a hemocytometer. The DRG were resuspended to a density of 6×10^5 cells/ml in attachment buffer. The neurons were resuspended to a density of 2×10^4 cells/ml in 1% medium and added to substrates and placed at 37° C., 5% CO2 for 15 hours.
(§3) After the growth period, the dishes were gently rinsed with PBS to remove unbound cells, fixed with 1% glutaraldehyde, and viewed by phase contrast microscopy. Ten to forty cells were analyzed for each substrate. Cells were judged as neurite-bearing if the length of the processes was greater than one cell diameter. All cells with neurites were photographed with a 20× objective and total neurite length per neurite-bearing cell was derived from the photographic prints. Percentage of neuronal sprouting was calculated from at least six experiments. Neurite length was calculated from at least three experiments.
To investigate whether CNS neurons could also extend neurites on CT/TN and CT/TN fragments, neurons from chick forebrain were plated at low density on CT/TN, CT/TN fragments and polylysine, and analyzed for neurite outgrowth after a 7 hour growth period (a time period found to be optimal for stable neurite outgrowth from these cells). The lengths of neurites on substrates that supported sprouting were essentially the same for the forebrain neurons and were therefore not quantitated further.

[3] = test system: dorsal root ganglia (DRG) neurons; experiment: Two-dimensional neurite outgrowth assay, DRG, 15 hours; format: cell-based, chicken; conditions: 15 hours
Protocol: as §1, §2, §3
This extensive neurite outgrowth after 40 hours made quantitation of the percentage of neurite-bearing cells and neurite length difficult. To analyze quantitatively the effect of CT/TN fusion proteins on DRG neurite outgrowth, DRG cells were therefore plated at low density on CT/TN or CT/TN fragments and analyzed after 15 hours in culture for the percentage of cells that sprouted neurites greater than one cell diameter and for the everage neurite length per neuron. These conditions enhanced the number of isolated cells and discouraged the cell-cell interactions and fasciculation that occurred in the long-term cultures.
The proteins used in the neurite outgrowth assays are the same as those used in the cell attachment assays. […] In addition, poly-L-lysine was adsorbed to the solid support. […] Any cells adhering to the solid support were examined for sprouting and neurite length as defined herein.
Proteins used in the neurite outgrowth assays were prepared as described in Example 5.A.2.
Dorsal root ganglia (DRG) from day 6 chicken embryos were prepared as described in Example 5.A.4. For the neurite outgrowth assays, the DRG were resuspended at a density of 2×10^4 cells/ml in 1% medium, added to solid support, and placed at 37° C. in 5% CO2 for 15 hours. After the attachment and growth period, the dishes were gently rinsed with PBS to remove unbound cells, fixed with 1% (v/v) glutaraldehyde, and viewed by phase contrast microscopy. Ten to thirty cells were analyzed for each adsorbed protein spot. Cells were judged as neurite-bearing if the length of the processes were greater than one cell diameter. All cells with neurites were photographed with a 40× objective and the total neurite length per neurite-bearing cell was derived from the prints. The percent of cells that were sprouting and the average neurite length was derived from six and three independent experiments, respectively. […]

[4] = test system: chicken fibroblast cell line SL29; experiment: Cell attachment assay, fibroblasts on protein-coated solid support; format: cell-based; conditions: CT coated at 20 μg/ml, binding fragments at 0.75 μM, non-binding at three times that, 1 hour
Protocol: In the cell attachment assays, a single cell suspension was allowed to settle for a fixed period of time onto a solid support that has been coated with the different CT-derived proteins to be tested for cell attachment (Friedlander, et al., J. Cell Biol. 107: 2329-2340 (1988)). After removing the unbound and loosely bound cells by washing, the attachment and morphology of those cells remaining on the dish were analyzed.
Solid supports, consisting of a circular array of CT or CT:GST fusion proteins bound to a dish, were prepared as follows for the cell attachment assay.
For the initial study, non tissue-culture treated polystyrene plates (Falcon 1008) were spotted with 2 μl of a 0.5 to 1.5 μM solution of CT in PBS for 30 minutes to coat a specific area on the dish with CT. CT was isolated from chicken brain or from fibroblast culture supernatant as described in Crossin, PNAS 88: 11403-11407 (1991) and Hoffman et al., J. Cell Biol. 106: 519-532 (1988). CT was placed in a circular array near the center of the dish and incubated at 37° C. for 30 minutes. After CT had adsorbed to the dish, the central portion of the dish was washed once with 250 μl of 20% (w/v) BSA in PBS. Non-specific binding sites on the dish were then blocked with 250 μl of 20% (w/v) BSA in PBS by incubation for 2 to 3 hours at room temperature.
For the subsequent study with the CT:GST fusion proteins, non tissue-culture treated polystyrene plates (Falcon 1008) were spotted with 2 μl of a 0.5 to 1.5 μM solution of CT:GST fusion protein in PBS as prepared in Example 5.A.2 or GST in PBS for 30 minutes to coat a specific area on the dish with CT:GST fusion protein or GST. The proteins to be tested were placed in a circular array near the center of the dish and incubated at 37° C. for 30 minutes. After the proteins adsorbed to the dish, the central portion of the dish was washed once with 250 μl of 20% (w/v) BSA in PBS. Non-specific binding sites on the dish were then blocked with 250 μl of 20% (w/v) BSA in PBS by incubation for 2 to 3 hours at room temperature.
The chicken fibroblast cell line SL29 (ATCC CRL 1590) was grown to confluence in Dulbecco's Minimum Essential Medium (DMEM; Gibco-BRL, Gaithersburg, Mass.) with 10% (v/v) fetal calf serum (FCS; Gibco-BRL) with penicillin and streptomycin. The cells were passaged the night prior to the assay and seeded at a density of 1:2. Cells were harvested in calcium, magnesium-free Hank's balanced salt solution (CMF-HBSS, Gibco-BRL) with 20 mM Hepes buffer and 5 mM EDTA. Harvested cells were washed in attachment buffer (CMF-HBSS with 10 mM Hepes, 1 mM CaCl2, 1 mM MgCl2, 0.1 mM MnCl2, and 2% (w/v) bovine serum albumin (BSA)) three times. The number of cells was quantitated by counting the cells in a hemocytometer. The cells were resuspended in attachment buffer to a density of 6×10^5 cells/ml.
Chicken fibroblasts, DRG, and solid supports (dishes) coated with CT for use in the cell attachment assays were prepared as described in Examples 5.A.2-4, respectively. The chicken fibroblasts and DRG at a density of 6×10^5 cells/ml were added to the prepared dishes and incubated at 37° C. in 5% CO2 for 1 hour. The dishes were then washed three times in PBS with gentle swirling to remove unattached cells, fixed in 1% glutaraldehyde in PBS, and viewed by phase contrast microscopy. The number of bound cells was determined using a 10× objective with an eyepiece reticle. The number of cells was determined in four fields for each fusion protein dot as the number of cells bound per […]. CT was tested in triplicate. The number of cells bound for CT was expressed as the average of the twelve measurements±standard deviation […].
CT, coated at a concentration of 20 μg/ml, was used as a solid support for SL29 fibroblast attachment. […] Fragments of CT were generated using the pGEX fusion protein system, as described in Example 1. The cell attachment assay was performed essentially as described above for the cell attachment assay to intact CT. […]

[5] = target: integrin receptor mediating RGD-dependent, not β1 integrin-mediated attachment of chicken SL29 fibroblasts and DRG cells; experiment: cell-based or functional assay
DRG cells = experiment: DRG neurite outgrowth, 40 hour culture, morphology; format: cell-based, chicken; conditions: DRG cells cultured 40 hours
Protocol: In order to assess the effect to the cell binding regions of CT/TN on the outgrowth of neurites from PNS neurons, DRG cells were cultured for 40 hours on popylysine, CTfn3, CTfn6, CTfg, and CTfn3-CTfn6 mixed substrates. The cultures were then fixed and the cell and neurite morphology was analyzed by phase contrast microscopy. The cells were plated on plastic substrates coated with the same concentrations of CTITN and fusion proteins used in the attachment assay.

UniProt P07228, sequence (P07228 25-803, form in doubt): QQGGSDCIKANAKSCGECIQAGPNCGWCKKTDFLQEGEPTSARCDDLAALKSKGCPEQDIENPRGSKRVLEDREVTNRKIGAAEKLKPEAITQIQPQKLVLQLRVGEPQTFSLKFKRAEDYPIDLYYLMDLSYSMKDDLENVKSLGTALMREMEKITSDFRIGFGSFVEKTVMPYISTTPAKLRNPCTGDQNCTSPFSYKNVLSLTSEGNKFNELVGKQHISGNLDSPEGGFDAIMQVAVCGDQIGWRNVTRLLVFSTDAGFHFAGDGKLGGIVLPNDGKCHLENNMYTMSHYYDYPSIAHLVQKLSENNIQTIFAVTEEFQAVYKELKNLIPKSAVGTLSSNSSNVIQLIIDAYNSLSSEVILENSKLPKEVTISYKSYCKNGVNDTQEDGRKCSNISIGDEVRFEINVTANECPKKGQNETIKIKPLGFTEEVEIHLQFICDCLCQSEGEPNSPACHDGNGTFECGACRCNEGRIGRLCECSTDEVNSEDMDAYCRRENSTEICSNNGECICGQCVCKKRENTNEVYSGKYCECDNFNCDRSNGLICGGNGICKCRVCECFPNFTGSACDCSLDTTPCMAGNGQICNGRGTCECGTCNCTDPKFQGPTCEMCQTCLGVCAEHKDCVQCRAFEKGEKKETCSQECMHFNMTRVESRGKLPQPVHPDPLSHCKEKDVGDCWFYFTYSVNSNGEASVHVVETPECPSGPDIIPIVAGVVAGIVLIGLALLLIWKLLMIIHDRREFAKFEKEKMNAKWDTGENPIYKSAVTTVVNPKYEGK

Molecule: CTfn5-6 fusion protein spanning the fifth and sixth FN type III repeats of chicken cytotactin (from UniProt P08515 1-218)
- inhibition of SL29 fibroblast binding to CTfn5-6 by mAb JG22 [1]: 77%

Molecule: CT: intact cytotactin isolated from chicken brain or fibroblast culture supernatant
- forebrain cell attachment [2]: low level of attachment
- forebrain neuron sprouting versus polylysine [2]: did not support sprouting of neurites
- % Sprouting ([2]; Table 4, FB (forebrain) neurons): 0%
- percentage of DRG cells that sprouted neurites ([3]; DRG): About 50%
- percentage of DRG cells that sprouted neurites ([3]; DRG, listed as CT/TN): 30%
- % Sprouting ([3]; Table 4, DRG, neurites greater than one cell diameter): 30 ± 3 %
- Neurite Length ([3]; Table 4, DRG, per neurite-bearing cell): 332 ± 177 microns
- Percent Sprouting ([3]; Table 5, DRG, six experiments): 30 ± 3
- Neurite Length (in microns) ([3]; Table 5, DRG, three experiments): 332 ± 177 microns
- SL29 fibroblast attachment to coated substrate (words) [4]: readily attached
- SL29 fibroblast attachment to coated substrate (words) ([4]; listed as CT/TN): bound well

Molecule: intact cytotactin (CT) isolated from chicken brain or from fibroblast culture supernatant (from UniProt P10039 34-1808) (ligand)
- inhibition of SL29 fibroblast attachment to intact CT/TN by GRGDTP (1 mg/ml) [5]: 33%
- inhibition of cell attachment to intact CT by soluble GRGDSP (1 mg/ml) [5]: 73%
- inhibition of cell attachment to intact CT by soluble GRGDTP (1 mg/ml) [5]: 70%

Molecule: CTfg CT:GST fusion protein (fibrinogen domain of chicken cytotactin fused to GST) (from UniProt P10039 1568-1808)
- decrease in DRG cell attachment to CTfg after preincubation with JG22 [1]: 19%

B1: CTfn3-6: single construct containing fibronectin type III repeats III and VI, SEQ ID NO 29 (protein, listed as Gallus gallus)
chain: LDAPSQIEAKDVTDTTALITWSKPLAEIEGIELTYGPKDVPGDRTTIDLSEDENQYSIGNLRPHTEYEYEVTLISRRGDMESDPAKEVFVTVVGSPKGISFSDITENSARVSWTPPRSRVDSYRVSYVPITGGTPNVVTVDGSKTRTKLVKLVPGVDYNVNIISVKGFEESE
- neurite promoting activity on DRG cells ([3]; DRG, low density): significant increase both in the percentage of neurite-bearing cells and in neurite elongation
- neurite and cell morphology after 40 hours (DRG cells): much longer and less fasciculated
